Assay results published in ChEMBL document CHEMBL2311352, “Discovery of 4-phenyl-2-phenylaminopyridine based TNIK inhibitors” (Bioorg Med Chem Lett, 2013).
Values after ≈ are worked out from the molar mass of the structure shown.

Experiments:
[1] = target: T1, TRAF2 and NCK-interacting protein kinase (Homo sapiens, UniProt Q9UKE5); assay: Inhibition of TNIK (unknown origin) by ADP glo luminescent assay
Target sequence in this assay (Q9UKE5 whole entry): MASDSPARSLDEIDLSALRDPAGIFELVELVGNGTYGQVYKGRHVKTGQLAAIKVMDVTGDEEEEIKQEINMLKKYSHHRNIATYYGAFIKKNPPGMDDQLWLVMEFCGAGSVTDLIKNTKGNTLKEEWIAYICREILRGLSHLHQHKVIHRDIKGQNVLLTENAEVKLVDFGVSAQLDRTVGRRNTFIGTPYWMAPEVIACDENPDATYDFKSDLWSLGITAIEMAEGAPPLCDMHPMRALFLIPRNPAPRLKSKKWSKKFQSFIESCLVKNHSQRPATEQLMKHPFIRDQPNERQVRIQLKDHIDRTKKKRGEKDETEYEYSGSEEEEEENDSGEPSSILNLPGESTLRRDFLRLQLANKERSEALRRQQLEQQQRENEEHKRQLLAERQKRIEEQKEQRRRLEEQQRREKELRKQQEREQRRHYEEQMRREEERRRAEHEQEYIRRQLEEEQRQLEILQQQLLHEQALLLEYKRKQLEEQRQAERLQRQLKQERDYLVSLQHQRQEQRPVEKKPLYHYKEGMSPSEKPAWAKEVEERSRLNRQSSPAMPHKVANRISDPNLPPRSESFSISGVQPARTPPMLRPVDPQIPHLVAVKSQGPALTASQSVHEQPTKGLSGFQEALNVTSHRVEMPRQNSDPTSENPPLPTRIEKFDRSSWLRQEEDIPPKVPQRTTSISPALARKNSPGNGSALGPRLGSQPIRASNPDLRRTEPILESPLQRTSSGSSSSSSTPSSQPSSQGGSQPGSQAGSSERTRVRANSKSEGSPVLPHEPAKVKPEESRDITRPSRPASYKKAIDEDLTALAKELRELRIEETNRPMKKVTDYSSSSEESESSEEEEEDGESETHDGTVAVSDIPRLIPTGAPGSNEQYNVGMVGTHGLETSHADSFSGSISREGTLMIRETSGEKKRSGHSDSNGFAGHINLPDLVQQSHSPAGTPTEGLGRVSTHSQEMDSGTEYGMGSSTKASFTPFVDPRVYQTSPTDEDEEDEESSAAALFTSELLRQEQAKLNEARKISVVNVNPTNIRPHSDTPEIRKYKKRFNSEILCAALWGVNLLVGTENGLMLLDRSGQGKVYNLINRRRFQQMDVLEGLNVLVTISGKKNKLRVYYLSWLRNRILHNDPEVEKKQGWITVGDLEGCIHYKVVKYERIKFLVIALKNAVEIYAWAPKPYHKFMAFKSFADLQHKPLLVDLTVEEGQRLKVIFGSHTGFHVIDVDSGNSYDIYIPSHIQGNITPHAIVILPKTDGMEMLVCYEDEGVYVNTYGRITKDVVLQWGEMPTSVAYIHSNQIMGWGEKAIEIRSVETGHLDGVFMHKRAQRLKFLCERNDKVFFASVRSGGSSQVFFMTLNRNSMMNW

HeLa = assay: Cytotoxicity against wnt-inactivated human HeLa cells assessed as cell viability; type: functional, cell-based
DLD-1 = assay: Cytotoxicity against wnt-activated human DLD1 cells assessed as cell viability; type: functional, cell-based
HCT-116 = assay: Cytotoxicity against wnt-activated human HCT116 cells assessed as cell viability; type: functional, cell-based
[2] = target: T1, TRAF2 and NCK-interacting protein kinase; assay: Ratio of IC50 for TNIK-mediated TCF4/[…] transcription in human HCT116 cells to IC50 for TNIK (unknown origin); type: cell-based; settings: HCT-116
Target sequence in this assay (Q9UKE5 whole entry, looked up): as the sequence (Q9UKE5 whole entry) above

HEK293 = assay: Cytotoxicity against wnt-inactivated human HEK293 cells assessed as cell viability; type: functional, cell-based
[3] = target: T1, TRAF2 and NCK-interacting protein kinase; assay: Inhibition of TNIK-mediated TCF4/[…] transcription in human HCT116 cells by beta-lactamase reporter gene assay; type: cell-based, HCT-116
Target sequence in this assay (Q9UKE5 whole entry): as above

[4] = target: Voltage-gated inwardly rectifying potassium channel KCNH2 (Homo sapiens, UniProt Q12809); assay: Inhibition of human ERG by patch clamp assay
[5] = Inhibition of CBP binding to […] in human SW480 cells by immunoblot analysis; type: cell-based
[6] = target: Receptor-type tyrosine-protein kinase FLT3 (Homo sapiens) (UniProt P36888); assay: Inhibition of FLT3 (unknown origin) at 1 uM
[7] = Apparent permeability across apical to basolateral side in human Caco2 cells; type: ADME, cell-based; settings: Caco-2
[8] = target: Macrophage colony-stimulating factor 1 receptor (Homo sapiens) (UniProt P07333); assay: Inhibition of FMS (unknown origin) at 1 uM
[9] = target: Inhibitor of nuclear factor kappa-B kinase subunit epsilon (Homo sapiens) (UniProt Q14164); assay: Inhibition of IKKepsilon (unknown origin) at 1 uM
[10] = Solubility of the compound in phosphate buffer at pH 7.4; type: physicochemical
[11] = target: T1, TRAF2 and NCK-interacting protein kinase; settings: 1 uM
Target sequence in this assay (Q9UKE5 whole entry, looked up): as the sequence (Q9UKE5 whole entry) above

[12] = Apparent permeability across basolateral to apical side in human Caco2 cells; type: ADME, cell-based; settings: Caco-2
[13] = target: Mitogen-activated protein kinase kinase kinase kinase 4 (Homo sapiens) (UniProt O95819); settings: 1 uM
[14] = target: CDK6/cyclin D1 (Homo sapiens) (UniProt P24385+Q00534); assay: Inhibition of CDK6/Cyclin D1 (unknown origin) at 1 uM; type: protein-complex assay
[15] = target: Serine/threonine-protein kinase Chk1 (Homo sapiens) (UniProt O14757); assay: Inhibition of CHK1 (unknown origin) at 1 uM
Caco-2 = assay: Ratio of apparent permeability across basolateral to apical side over apical to basolateral side in human Caco2 cells; type: ADME, cell-based
[16] = target: T1, TRAF2 and NCK-interacting protein kinase; assay: Competitive binding affinity to TNIK (unknown origin) in presence of ATP
Target sequence in this assay (Q9UKE5 whole entry): as above

Voltage-gated inwardly rectifying potassium channel KCNH2, sequence (Q12809 whole entry): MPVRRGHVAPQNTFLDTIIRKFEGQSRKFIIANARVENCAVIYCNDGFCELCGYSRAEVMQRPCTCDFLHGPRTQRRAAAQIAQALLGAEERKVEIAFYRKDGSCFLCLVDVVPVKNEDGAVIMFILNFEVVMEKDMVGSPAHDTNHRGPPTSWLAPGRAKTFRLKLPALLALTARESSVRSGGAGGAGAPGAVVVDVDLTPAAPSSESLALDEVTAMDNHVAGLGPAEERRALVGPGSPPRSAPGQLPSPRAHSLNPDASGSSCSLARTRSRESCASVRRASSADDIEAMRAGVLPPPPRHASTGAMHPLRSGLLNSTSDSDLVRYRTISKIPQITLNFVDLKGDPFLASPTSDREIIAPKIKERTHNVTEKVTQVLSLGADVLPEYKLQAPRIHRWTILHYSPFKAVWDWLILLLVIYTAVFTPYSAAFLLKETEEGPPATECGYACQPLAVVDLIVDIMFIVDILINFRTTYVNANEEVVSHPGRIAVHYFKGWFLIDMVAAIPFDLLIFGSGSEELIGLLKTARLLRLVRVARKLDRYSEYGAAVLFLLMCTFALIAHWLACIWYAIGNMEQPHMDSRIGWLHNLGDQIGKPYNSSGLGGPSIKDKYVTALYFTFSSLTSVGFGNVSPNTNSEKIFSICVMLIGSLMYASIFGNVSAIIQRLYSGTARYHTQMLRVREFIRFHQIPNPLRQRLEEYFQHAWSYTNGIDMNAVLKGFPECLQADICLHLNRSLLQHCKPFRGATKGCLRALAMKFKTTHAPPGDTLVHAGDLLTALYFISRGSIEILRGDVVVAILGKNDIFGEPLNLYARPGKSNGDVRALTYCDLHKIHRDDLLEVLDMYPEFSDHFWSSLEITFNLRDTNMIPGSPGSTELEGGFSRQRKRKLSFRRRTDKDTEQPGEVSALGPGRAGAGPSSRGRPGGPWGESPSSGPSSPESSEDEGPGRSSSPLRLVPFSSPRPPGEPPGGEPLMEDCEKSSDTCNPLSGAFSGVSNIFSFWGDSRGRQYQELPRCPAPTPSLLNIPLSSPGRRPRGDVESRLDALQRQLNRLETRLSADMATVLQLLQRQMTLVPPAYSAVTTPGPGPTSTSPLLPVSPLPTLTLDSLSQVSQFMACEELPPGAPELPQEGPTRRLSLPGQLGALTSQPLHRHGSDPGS
Receptor-type tyrosine-protein kinase FLT3 (Homo sapiens), sequence (P36888 whole entry): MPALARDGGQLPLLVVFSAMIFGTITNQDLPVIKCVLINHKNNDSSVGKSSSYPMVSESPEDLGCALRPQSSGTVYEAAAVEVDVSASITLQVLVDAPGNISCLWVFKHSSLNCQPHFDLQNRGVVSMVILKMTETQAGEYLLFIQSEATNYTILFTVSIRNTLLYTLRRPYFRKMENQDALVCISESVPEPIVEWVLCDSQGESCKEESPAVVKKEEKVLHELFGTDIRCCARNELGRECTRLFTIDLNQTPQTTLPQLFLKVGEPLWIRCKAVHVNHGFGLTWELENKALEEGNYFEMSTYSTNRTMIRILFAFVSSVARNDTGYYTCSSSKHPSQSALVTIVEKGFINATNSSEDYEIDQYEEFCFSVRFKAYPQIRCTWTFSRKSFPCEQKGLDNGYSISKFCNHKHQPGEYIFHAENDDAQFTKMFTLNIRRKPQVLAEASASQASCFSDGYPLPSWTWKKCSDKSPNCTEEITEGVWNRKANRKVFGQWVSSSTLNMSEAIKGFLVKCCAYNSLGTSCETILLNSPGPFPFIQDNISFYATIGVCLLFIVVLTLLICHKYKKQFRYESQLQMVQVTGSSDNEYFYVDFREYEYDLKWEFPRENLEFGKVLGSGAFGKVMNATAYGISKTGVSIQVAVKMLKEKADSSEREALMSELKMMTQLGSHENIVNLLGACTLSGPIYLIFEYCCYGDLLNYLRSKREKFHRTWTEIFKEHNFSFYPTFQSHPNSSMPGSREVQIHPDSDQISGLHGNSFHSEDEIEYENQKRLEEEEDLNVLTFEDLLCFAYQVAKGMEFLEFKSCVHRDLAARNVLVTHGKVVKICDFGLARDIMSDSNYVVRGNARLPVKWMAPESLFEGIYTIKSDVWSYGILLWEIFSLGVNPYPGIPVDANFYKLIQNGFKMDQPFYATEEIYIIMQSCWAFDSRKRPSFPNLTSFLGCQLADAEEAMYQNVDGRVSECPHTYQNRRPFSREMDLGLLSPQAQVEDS
Inhibitor of nuclear factor kappa-B kinase subunit epsilon (Homo sapiens), sequence (Q14164 whole entry): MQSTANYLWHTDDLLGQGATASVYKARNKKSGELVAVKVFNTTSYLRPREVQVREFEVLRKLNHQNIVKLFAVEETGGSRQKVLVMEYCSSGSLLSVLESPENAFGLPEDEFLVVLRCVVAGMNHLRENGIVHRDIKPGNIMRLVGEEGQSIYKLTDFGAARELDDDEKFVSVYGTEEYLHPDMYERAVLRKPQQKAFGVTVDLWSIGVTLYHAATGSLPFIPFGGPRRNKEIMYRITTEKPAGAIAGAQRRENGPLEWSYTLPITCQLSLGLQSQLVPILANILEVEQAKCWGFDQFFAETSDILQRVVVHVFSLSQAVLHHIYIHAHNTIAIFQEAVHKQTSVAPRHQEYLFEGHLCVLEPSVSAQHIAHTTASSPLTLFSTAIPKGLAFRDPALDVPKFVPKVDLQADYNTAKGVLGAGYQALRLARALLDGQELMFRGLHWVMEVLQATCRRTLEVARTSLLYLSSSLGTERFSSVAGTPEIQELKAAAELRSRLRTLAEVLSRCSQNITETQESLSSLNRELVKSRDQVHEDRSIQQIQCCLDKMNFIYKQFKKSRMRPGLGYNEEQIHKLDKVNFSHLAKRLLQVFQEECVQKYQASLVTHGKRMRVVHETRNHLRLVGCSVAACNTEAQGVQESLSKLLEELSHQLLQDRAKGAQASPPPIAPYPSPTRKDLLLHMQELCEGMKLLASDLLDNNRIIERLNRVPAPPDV
Serine/threonine-protein kinase Chk1 (Homo sapiens), sequence (O14757 whole entry): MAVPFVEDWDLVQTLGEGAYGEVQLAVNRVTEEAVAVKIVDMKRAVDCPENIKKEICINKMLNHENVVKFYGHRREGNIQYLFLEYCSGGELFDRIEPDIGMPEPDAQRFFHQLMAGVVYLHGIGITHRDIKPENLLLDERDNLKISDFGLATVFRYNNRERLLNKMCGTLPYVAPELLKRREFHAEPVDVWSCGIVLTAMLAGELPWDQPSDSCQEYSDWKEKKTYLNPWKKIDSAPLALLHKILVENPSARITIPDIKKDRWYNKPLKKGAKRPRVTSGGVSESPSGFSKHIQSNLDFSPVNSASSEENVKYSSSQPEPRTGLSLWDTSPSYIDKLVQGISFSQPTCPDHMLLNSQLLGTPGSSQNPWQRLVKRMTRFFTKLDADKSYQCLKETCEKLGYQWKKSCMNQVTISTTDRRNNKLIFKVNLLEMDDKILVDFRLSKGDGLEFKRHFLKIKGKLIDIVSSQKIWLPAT

COc1cc(Nc2cc(-c3ccc(C#N)cc3)ccn2)ccc1N1CCOCC1
IC50 [1]: > 1000 nM

COc1ccc(C#N)cc1-c1ccnc(Nc2ccc(N3CCC(N(C)C)CC3)c(F)c2)c1
IC50 (HeLa): 1200 nM
IC50 (DLD-1): 330 nM
IC50 [1]: 11 nM
IC50 (HCT-116): 260 nM
Ratio IC50 [2]: 280
IC50 (HEK293): 43 nM
IC50 [3]: 3100 nM

COc1ccc(C#N)cc1-c1ccnc(Nc2ccc(N3CCN(C)CC3)cc2)c1
IC50 [1]: 5 nM
Ratio IC50 [2]: > 6000
IC50 [3]: > 30000 nM

COc1ccc(C(F)(F)F)cc1-c1ccnc(Nc2ccc(N3CCOCC3)c(OC)c2)c1
IC50 [1]: 275 nM

COc1ccc(F)cc1-c1ccnc(Nc2ccc(N3CCOCC3)c(OC)c2)c1
IC50 [1]: 118 nM

COc1ccc(C#N)cc1-c1ccnc(Nc2ccc(N3CCN(C)CC3)c(OC)c2)c1
IC50 [1]: 3 nM

COc1cc(C#N)cc(-c2ccnc(Nc3ccc(N4CCOCC4)c(OC)c3)c2)c1
IC50 [1]: 63 nM

COc1ccc(C#N)cc1-c1ccnc(Nc2ccc(N3CCOCC3)c(OC)c2)c1
IC50 (HeLa): 6800 nM
IC50 (DLD-1): 5800 nM
IC50 (HCT-116): 2300 nM
IC50 (HEK293): 105 nM

COc1ccc(Cl)cc1-c1ccnc(Nc2ccc(N3CCN(C)CC3)c(OC)c2)c1
IC50 [1]: 4 nM
Ratio IC50 [2]: 2000
IC50 [3]: 7900 nM

COc1ccc(Cl)cc1-c1ccnc(Nc2ccc(N3CCOCC3)c(OC)c2)c1
IC50 [1]: 41 nM
IC50 [4]: 20000 nM

COc1ccc(C#N)cc1-c1ccnc(Nc2ccc(N3CCOCC3)cc2)c1
IC50 [1]: 11 nM
Ratio IC50 [2]: 2400
IC50 [3]: 26000 nM

O=C1[C@H](Cc2ccc(O)cc2)N2C(=O)CCN(C(=O)NCc3ccccc3)[C@H]2CN1Cc1cccc2ccccc12
IC50 [5]: 1300 nM

COc1cc(Nc2cc(-c3cccc(C#N)c3)ccn2)ccc1N1CCOCC1
IC50 [1]: 55 nM
IC50 [4]: 7700 nM

COc1cc(Nc2cc(-c3cccc(C#N)c3)ccn2)ccc1N1CCN(C)CC1
inhibition [6]: 50%
Papp A→B [7]: 16 ×10⁻⁶ cm/s
IC50 [1]: 6 nM
inhibition [8]: 50%
inhibition [9]: > 80%
solubility [10]: 78 µM (≈ 31.2 µg/mL)
inhibition [11]: > 95%
Papp B→A [12]: 14.2 ×10⁻⁶ cm/s
inhibition [13]: > 95%
IC50 [3]: 27000 nM
inhibition [14]: > 50%
inhibition [15]: > 50%

COc1ccc(Cl)cc1-c1ccnc(Nc2ccc(CCN3CCOCC3)cc2)c1
IC50 (HeLa): 3700 nM
IC50 (DLD-1): 1100 nM
IC50 [1]: 20 nM
IC50 (HCT-116): 1700 nM
IC50 (HEK293): 59 nM

COc1cc(Nc2cc(-c3cccc(CC#N)c3)ccn2)ccc1N1CCN(C)CC1
Papp A→B [7]: 20.5 ×10⁻⁶ cm/s
IC50 [1]: 290 nM
Ratio (Caco-2): 0.93
solubility [10]: 94 µM (≈ 38.9 µg/mL)
Papp B→A [12]: 19.1 ×10⁻⁶ cm/s
Kd [16]: 220 nM
